Measurements as given in patent US7250442B2, “Dihydroindol-2-one derivatives as steroid hormone nuclear receptor modulators” (Eli Lilly and Company, priority 2003, dated 2007).

Biological target: T1, glucocorticoid receptor (Homo sapiens, UniProt P04150)
T1 construct: host or cells: A549 human lung epithelial cells (sonicated cell extract)
T1 sequence (P04150 1-777): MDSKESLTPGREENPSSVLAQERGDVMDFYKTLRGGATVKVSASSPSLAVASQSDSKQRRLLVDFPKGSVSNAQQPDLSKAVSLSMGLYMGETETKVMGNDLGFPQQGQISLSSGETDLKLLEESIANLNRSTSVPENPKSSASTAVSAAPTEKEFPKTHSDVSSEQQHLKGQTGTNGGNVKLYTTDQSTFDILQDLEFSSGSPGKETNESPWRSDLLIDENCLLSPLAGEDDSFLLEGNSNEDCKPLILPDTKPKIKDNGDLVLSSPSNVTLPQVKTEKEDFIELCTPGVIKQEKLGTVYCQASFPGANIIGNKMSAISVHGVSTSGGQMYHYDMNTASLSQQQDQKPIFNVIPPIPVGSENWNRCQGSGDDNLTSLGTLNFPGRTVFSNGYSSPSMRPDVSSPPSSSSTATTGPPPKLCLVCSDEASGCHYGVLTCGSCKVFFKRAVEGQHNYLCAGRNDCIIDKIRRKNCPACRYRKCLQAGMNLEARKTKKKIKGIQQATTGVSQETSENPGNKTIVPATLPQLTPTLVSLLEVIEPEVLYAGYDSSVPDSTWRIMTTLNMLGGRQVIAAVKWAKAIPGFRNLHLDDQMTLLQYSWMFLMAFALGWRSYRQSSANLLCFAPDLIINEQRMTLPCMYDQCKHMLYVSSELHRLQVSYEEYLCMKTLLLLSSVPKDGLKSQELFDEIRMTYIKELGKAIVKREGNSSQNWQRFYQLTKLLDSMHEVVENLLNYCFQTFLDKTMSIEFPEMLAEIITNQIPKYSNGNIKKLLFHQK
Test: Glucocorticoid Receptor Binding Assay ([3H]-dexamethasone displacement, A549 cell extract)
Conditions: A549 human lung epithelial cell extract, 1.86 nM [3H]-dexamethasone; read-out: GR Ki
Method: Glucocorticoid Receptor Binding Assay:
A549 human lung epithelial cells (ATCC) are grown at a scale where gram quantity cell pellets are obtained. Harvested cell pellets are washed twice in cold phosphate buffered saline, centrifuged, and resuspended in cold assay binding buffer. The assay binding buffer consists of 10% glycerol, 50 mM Tris-HCl (pH7.2), 75 mM sodium chloride, 1.5 mM magnesium chloride, 1.5 mM EDTA, and 10 mM sodium molybdate. Cell suspensions were lysed via sonication, centrifuged, and the “extract” supernatant is snap frozen and stored at −80C. until needed.
GR binding assays are performed in a final volume of 140 ul containing 50-200 ug of A549 cell extract and 1.86 nM [^3H]-dexamethasone (Amersham) plus varying concentrations of test compound or vehicle. Briefly, assays are prepared at RT in 96-well Fisher 3356 plates, each well containing 100 ul of A549 cell extract, 20 ul of [^3H]-dexamethasone, and 20 ul of test compound/vehicle. Incubations are carried out at 4 degrees celsius for 16 hours. After incubation, 70 ul of 3× dextran-coated charcoal solution is added to each reaction, mixed, and incubated for 8 minutes at RT. 3×-dextran-coated charcoal solution consists of 250 ml assay binding buffer, 3.75 g Norit A charcoal (Sigma), and 1.25 g dextran T-70 (Amersham). Charcoal/unbound radioligand complexes are removed by centrifugation of the plate and 140 ul of supernatant from each well is transferred to another 96 well Optiplate (Packard Instruments). 200 ul of Microscint-20 scinillant (Packard Instruments) is added to each well and amount of receptor bound radioligand is determined using Packard Instruments TopCount instrument.
IC50 values, defined as the concentration of test compound required to decrease [^3H]-dexamethasone binding by 50%, are then determined. Ki values for each respective test compound can then be calculated by application of the Cheng-Prusoff equation as described in Cheng et al., Relationship Between The Inhibition Constant (Ki) and The Concentration of Inhibitor Which Causes 50% Inhibition (IC50) of an Enzymatic Reaction, Biochem. Pharmacol., 22: 3099-31088; (1973).

Ki | Compound
≤ 10000 nM | COc1ccc(-c2nc(CN3C(=O)C(c4cc(C)c(O)c(C)c4)(c4cc(C)c(O)c(C)c4)c4ccccc43)cs2)cc1 [Example 94, 3,3-Bis-(4-hydroxy-3,5-dimethyl-phenyl)-1-[2-(4-methoxy-phenyl)-thiazol-4-ylmethyl]-1,3-dihydro-indol-2-one]
≤ 1000 nM | COc1ccc(-c2nc(CN3C(=O)C(c4cc(C)c(O)c(C)c4)(c4cc(C)c(O)c(C)c4)c4cc(C)ccc43)cs2)cc1 [Example 95, 3,3-Bis-(4-hydroxy-3,5-dimethyl-phenyl)-1-[2-(4-methoxy-phenyl)-thiazol-4-ylmethyl]-5-methyl-1,3-dihydro-indol-2-one]
≤ 500 nM | Cc1cc(C2(c3cc(C)c(O)c(C)c3)C(=O)N(Cc3ccc4ccccc4n3)c3ccccc32)cc(C)c1O [Example 97, 3,3-Bis-(4-hydroxy-3,5-dimethyl-phenyl)-1-quinolin-2-ylmethyl-1,3-dihydro-indol-2-one]
≤ 1000 nM | COc1ccc(-c2nc(CN3C(=O)C(c4cc(C)c(O)c(C)c4)(c4cc(C)c(O)c(C)c4)c4ccccc43)no2)cc1 [Example 99, 3,3-Bis-(4-hydroxy-3,5-dimethyl-phenyl)-1-[5-(4-methoxy-phenyl)-[1,2,4]oxadiazol-3-ylmethyl]-1,3-dihydro-indol-2-one]
≤ 500 nM | C#CCN1C(=O)C(c2cc(C)c(O)c(C)c2)(c2cc(C)c(O)c(C)c2)c2ccccc21 [Example 101, 3,3-Bis-(4-hydroxy-3,5-dimethyl-phenyl)-1-prop-2-ynyl-1,3-dihydro-indol-2-one]
≤ 500 nM | CC(C)=CCN1C(=O)C(c2cc(C)c(O)c(C)c2)(c2cc(C)c(O)c(C)c2)c2ccccc21 [Example 102, 3,3-Bis-(4-hydroxy-3,5-dimethyl-phenyl)-1-(3-methyl-but-2-enyl)-1,3-dihydro-indol-2-one]
≤ 500 nM | C=C(C)CN1C(=O)C(c2cc(C)c(O)c(C)c2)(c2cc(C)c(O)c(C)c2)c2ccccc21 [Example 106, 3,3-Bis-(4-hydroxy-3,5-dimethyl-phenyl)-1-(2-methyl-allyl)-1,3-dihydro-indol-2-one]
≤ 500 nM | COC(=O)c1ccc(CN2C(=O)C(c3cc(C)c(O)c(C)c3)(c3cc(C)c(O)c(C)c3)c3ccccc32)o1 [Example 108, 5-[3,3-Bis-(4-hydroxy-3,5-dimethyl-phenyl)-2-oxo-2,3-dihydro-indol-1-ylmethyl]-furan-2-carboxylic acid methyl ester]
≤ 500 nM | CCOC(=O)CN1C(=O)C(c2cc(C)c(O)c(C)c2)(c2cc(C)c(O)c(C)c2)c2ccccc21 [Example 109, [3,3-Bis-(4-hydroxy-3,5-dimethyl-phenyl)-2-oxo-2,3-dihydro-indol-1-yl]-acetic acid ethyl ester]
≤ 500 nM | Cc1cc(C2(c3cc(C)c(O)c(C)c3)C(=O)N(CCC3CCCCC3)c3ccccc32)cc(C)c1O [Example 110, 1-(2-Cyclohexyl-ethyl)-3,3-bis-(4-hydroxy-3,5-dimethyl-phenyl)-1,3-dihydro-indol-2-one]
≤ 500 nM | Cc1cc(C2(c3cc(C)c(O)c(C)c3)C(=O)N(Cc3ccncc3)c3ccccc32)cc(C)c1O [Example 111, 3,3-Bis-(4-hydroxy-3,5-dimethyl-phenyl)-1-pyridin-4-ylmethyl-1,3-dihydro-indol-2-one]
≤ 500 nM | Cc1cc(C2(c3cc(C)c(O)c(C)c3)C(=O)N(Cc3c(Cl)cccc3Cl)c3ccccc32)cc(C)c1O [Example 113, 1-(2,6-Dichloro-benzyl)-3,3-bis-(4-hydroxy-3,5-dimethyl-phenyl)-1,3-dihydro-indol-2-one]
≤ 500 nM | Cc1cc(C2(c3cc(C)c(O)c(C)c3)C(=O)N(Cc3c(F)cccc3F)c3ccccc32)cc(C)c1O [Example 115, 1-(2,6-Difluoro-benzyl)-3,3-bis-(4-hydroxy-3,5-dimethyl-phenyl)-1,3-dihydro-indol-2-one]
≤ 500 nM | Cc1cc(C2(c3cc(C)c(O)c(C)c3)C(=O)N(Cc3ccccc3N)c3ccccc32)cc(C)c1O [Example 119, 1-(2-Amino-benzyl)-3,3-bis-(4-hydroxy-3,5-dimethyl-phenyl)-1,3-dihydro-indol-2-one]
≤ 500 nM | Cc1ccc(N2C(=O)C(c3cc(C)c(O)c(C)c3)(c3cc(C)c(O)c(C)c3)c3ccccc32)cc1 [Example 125, 3,3-Bis-(4-hydroxy-3,5-dimethyl-phenyl)-1-p-tolyl-1,3-dihydro-indol-2-one]
≤ 500 nM | Cc1cc(C2(c3cc(C)c(O)c(C)c3)C(=O)N(c3ccccc3)c3ccccc32)cc(C)c1O [Example 126, 3,3-Bis-(4-hydroxy-3,5-dimethyl-phenyl)-1-phenyl-1,3-dihydro-indol-2-one]
≤ 500 nM | Cc1cc(C2(c3cc(C)c(O)c(C)c3)C(=O)N(c3cccc(C(F)(F)F)c3)c3ccccc32)cc(C)c1O [Example 127, 3,3-Bis-(4-hydroxy-3,5-dimethyl-phenyl)-1-(3-trifluoromethyl-phenyl)-1,3-dihydro-indol-2-one]
≤ 500 nM | Cc1cc(C2(c3cc(C)c(O)c(C)c3)C(=O)N(c3ccccc3Cl)c3ccccc32)cc(C)c1O [Example 129, 1-(2-Chloro-phenyl)-3,3-bis-(4-hydroxy-3,5-dimethyl-phenyl)-1,3-dihydro-indol-2-one]
≤ 500 nM | Cc1cc(C2(c3cc(C)c(O)c(C)c3)C(=O)N(c3cccc(F)c3)c3ccccc32)cc(C)c1O [Example 130, 1-(3-Fluoro-phenyl)-3,3-bis-(4-hydroxy-3,5-dimethyl-phenyl)-1,3-dihydro-indol-2-one]
≤ 500 nM | Cc1cc(C2(c3cc(C)c(O)c(C)c3)C(=O)N(c3ccc(C(F)(F)F)cc3)c3ccccc32)cc(C)c1O [Example 131, 3,3-Bis-(4-hydroxy-3,5-dimethyl-phenyl)-1-(4-trifluoromethyl-phenyl)-1,3-dihydro-indol-2-one]
≤ 500 nM | Cc1ccccc1N1C(=O)C(c2cc(C)c(O)c(C)c2)(c2cc(C)c(O)c(C)c2)c2ccccc21 [Example 132, 3,3-Bis-(4-hydroxy-3,5-dimethyl-phenyl)-1-o-tolyl-1,3-dihydro-indo 1-2-one]
≤ 500 nM | Cc1cccc(N2C(=O)C(c3cc(C)c(O)c(C)c3)(c3cc(C)c(O)c(C)c3)c3ccccc32)c1 [Example 133, 3,3-Bis-(4-hydroxy-3,5-dimethyl-phenyl)-1-m-tolyl-1,3-dihydro-indol-2-one]
≤ 500 nM | Cc1cc(C2(c3cc(C)c(O)c(C)c3)C(=O)N(c3ccncc3)c3ccccc32)cc(C)c1O [Example 136, 3,3-Bis-(4-hydroxy-3,5-dimethyl-phenyl)-1-pyridin-4-yl-1,3-dihydro-indol-2-one]
≤ 500 nM | CCOc1cccc(N2C(=O)C(c3cc(C)c(O)c(C)c3)(c3cc(C)c(O)c(C)c3)c3ccccc32)c1 [Example 137, 1-(3-Ethoxy-phenyl)-3,3-bis-(4-hydroxy-3,5-dimethyl-phenyl)-1,3-dihydro-indol-2-one]
≤ 500 nM | Cc1cc(C2(c3cc(C)c(O)c(C)c3)C(=O)N(c3cccc(C(C)C)c3)c3ccccc32)cc(C)c1O [Example 138, 3,3-Bis-(4-hydroxy-3,5-dimethyl-phenyl)-1-(3-isopropyl-phenyl)-1,3-dihydro-indol-2-one]
≤ 500 nM | COc1ccc(N2C(=O)C(c3cc(C)c(O)c(C)c3)(c3cc(C)c(O)c(C)c3)c3ccccc32)cc1OC [Example 140, 1-(3,4-Dimethoxy-phenyl)-3,3-bis-(4-hydroxy-3,5-dimethyl-phenyl)-1,3-dihydro-indol-2-one]
